# Results reported in PubChem BioAssay AID212 (DTP/NCI, 2004).
# Where “and” joins values, the source holds several entries; their conditions need not be identical. Identical values can stand only once. Inconclusive results are not listed.
# System: BDF1 mice, colon carcinoma 38 sc, T/C %
# Experiment: NCI In Vivo Anticancer Drug Screen. Data for tumor model Colon Carcinoma 38 (subcutaneous) in B6D2F1 (BDF1) mice
# Conditions: endpoint: median tumor weight (est.), schedule: Q07DX002 (ip), higher = larger tumour
# Outline: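 Ratio of survival or tumor size, compound-treated animals relative to vehicle controls, in tumor-bearing mice.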
# [1] = dose: 12.5 mg/kg/injection, vehicle: saline with Tween-80
# [2] = dose: 12.5 mg/kg/injection, vehicle: saline
# [3] = dose: 25.0 mg/kg/injection, vehicle: saline with Tween-80
# [4] = dose: 25.0 mg/kg/injection, vehicle: saline
# [5] = dose: 50.0 mg/kg/injection, vehicle: saline with Tween-80
# [6] = dose: 50.0 mg/kg/injection, vehicle: saline
# [7] = dose: 100.0 mg/kg/injection, vehicle: saline
# [8] = dose: 200.0 mg/kg/injection, vehicle: saline
# [9] = dose: 400.0 mg/kg/injection, vehicle: saline
# [10] = dose: 200.0 mg/kg/injection, vehicle: saline with Tween-80
# [11] = dose: 25.0 mg/kg/injection, vehicle: Klucel (hydroxypropylcellulose) (HPC)
# [12] = dose: 50.0 mg/kg/injection, vehicle: Klucel (hydroxypropylcellulose) (HPC)
# [13] = dose: 100.0 mg/kg/injection, vehicle: Klucel (hydroxypropylcellulose) (HPC)
# [14] = dose: 200.0 mg/kg/injection, vehicle: Klucel (hydroxypropylcellulose) (HPC)
# [15] = dose: 100.0 mg/kg/injection, vehicle: saline with Tween-80
# [16] = dose: 400.0 mg/kg/injection, vehicle: saline with Tween-80
smiles,measurement,setting,value
Cc1cc(NCCN(C(C)C)C(C)C)nc(/N=C(\N)Nc2ccc(Cl)c(C(F)(F)F)c2)n1,T/C,"dose: 2.5 mg/kg/injection, vehicle: Klucel (hydroxypropylcellulose) (HPC)",89 % of control
same,T/C,"dose: 10.0 mg/kg/injection, vehicle: Klucel (hydroxypropylcellulose) (HPC)",82 % of control
same,T/C,"dose: 20.0 mg/kg/injection, vehicle: Klucel (hydroxypropylcellulose) (HPC)",95 % of control
same,T/C,"dose: 40.0 mg/kg/injection, vehicle: Klucel (hydroxypropylcellulose) (HPC)",67 % of control
CC(=O)OC1COC(NC(=O)N(CCCl)N=O)C(OC(C)=O)C1OC(C)=O (stereo not given),T/C,"dose: 0.75 mg/kg/injection, vehicle: saline with Tween-80",92 % of control
same,T/C,"dose: 1.5 mg/kg/injection, vehicle: saline with Tween-80",84 % of control
same,T/C,"dose: 3.0 mg/kg/injection, vehicle: saline with Tween-80",66 % of control
same,T/C,"dose: 6.0 mg/kg/injection, vehicle: saline with Tween-80",92 % of control
same,T/C,"dose: 12.0 mg/kg/injection, vehicle: saline with Tween-80",44 % of control
COC1C(C)OC(OC2CC(C)(O)Cc3cc4c(c(O)c32)C(=O)c2c(O)cc3c(c2C4=O)OC2OC3(C)C(O)C(N(C)C)C2O)C(OC)C1(C)OC (stereo not given),T/C,"dose: 0.62 mg/kg/injection, vehicle: other",53 % of control
same,T/C,"dose: 1.25 mg/kg/injection, vehicle: other",81 % of control
same,T/C,"dose: 5.0 mg/kg/injection, vehicle: other",83 % of control
same,T/C,"dose: 10.0 mg/kg/injection, vehicle: other",89 % of control
OCC1OC(n2cnc3c(=S)nc[nH]c32)C(O)C1O (stereo not given),T/C,[1],61 % of control
same,T/C,[2],90 % of control
same,T/C,[3],97 % of control and 118 % of control
same,T/C,[4],101 % of control
same,T/C,[5],77 % of control and 83 % of control and 80 % of control
same,T/C,[6],14 % of control
same,T/C,[7],17 % of control
same,T/C,[8],46 % of control
same,T/C,[9],22 % of control
same,T/C,"dose: 800.0 mg/kg/injection, vehicle: saline with Tween-80",33 % of control and 34 % of control and 57 % of control
same,T/C,"dose: 1600.0 mg/kg/injection, vehicle: saline with Tween-80",28 % of control
COc1ccc(C(=O)/C(Br)=C/C(=O)O)cc1,T/C,"dose: 4.0 mg/kg/injection, vehicle: saline",104 % of control
same,T/C,"dose: 8.0 mg/kg/injection, vehicle: saline",98 % of control
same,T/C,"dose: 16.0 mg/kg/injection, vehicle: saline",104 % of control
same,T/C,"dose: 32.0 mg/kg/injection, vehicle: saline",71 % of control
C/C=C(\C)c1cc(=O)c2c(C)cc3c(c2o1)C(=O)c1c(O)c(C2CC(C)(N(C)C)C(O)C(C)O2)cc(C2CC(N(C)C)C(O)C(C)O2)c1C3=O (stereo not given),T/C,"dose: 0.62 mg/kg/injection, vehicle: saline",117 % of control
same,T/C,"dose: 1.25 mg/kg/injection, vehicle: saline",118 % of control
same,T/C,"dose: 62.5 micrograms/kg/injection, vehicle: saline",109 % of control and 103 % of control
same,T/C,"dose: 250.0 micrograms/kg/injection, vehicle: saline",81 % of control and 84 % of control
same,T/C,"dose: 500.0 micrograms/kg/injection, vehicle: saline",80 % of control and 85 % of control
same,T/C,"dose: 1000.0 micrograms/kg/injection, vehicle: saline",74 % of control and 95 % of control
same,T/C,"dose: 2000.0 micrograms/kg/injection, vehicle: saline",100 % of control
CCCCCc1cc(/C=C2/N=C(c3ccc[nH]3)C=C2OC)[nH]c1C,T/C,"dose: 0.5 mg/kg/injection, vehicle: saline with Tween-80",94 % of control
same,T/C,"dose: 2.0 mg/kg/injection, vehicle: saline with Tween-80",163 % of control
same,T/C,"dose: 4.0 mg/kg/injection, vehicle: saline with Tween-80",106 % of control
same,T/C,"dose: 8.0 mg/kg/injection, vehicle: saline with Tween-80",120 % of control
same,T/C,"dose: 16.0 mg/kg/injection, vehicle: saline with Tween-80",108 % of control
N/C=N/O,T/C,[4],124 % of control
same,T/C,[6],70 % of control
same,T/C,[7],97 % of control
same,T/C,[8],92 % of control
same,T/C,[9],56 % of control
COc1ccc(-c2csc(=[N+]3CCCCC3)s2)cc1,T/C,"dose: 3.13 mg/kg/injection, vehicle: water",107 % of control
same,T/C,"dose: 6.25 mg/kg/injection, vehicle: water",105 % of control
same,T/C,"dose: 12.5 mg/kg/injection, vehicle: water",116 % of control
same,T/C,"dose: 25.0 mg/kg/injection, vehicle: water",123 % of control
same,T/C,"dose: 50.0 mg/kg/injection, vehicle: water",121 % of control
CCCCCCCCCCCCSC1=C(Cl)C(=O)C(OC)=C(OC)C1=O,T/C,[3],110 % of control and 97 % of control
same,T/C,[5],91 % of control and 96 % of control
same,T/C,[10],104 % of control
Nc1cc2c(c[n+](CCCCCCCC[n+]3cc4c5ccccc5c(N)cc4c4ccccc43)c3ccccc23)c2ccccc12,T/C,"dose: 7.5 mg/kg/injection, vehicle: water",108 % of control
same,T/C,"dose: 15.0 mg/kg/injection, vehicle: water",82 % of control
same,T/C,"dose: 30.0 mg/kg/injection, vehicle: water",94 % of control
same,T/C,"dose: 60.0 mg/kg/injection, vehicle: water",53 % of control
Oc1c(Cl)cc(Cl)cc1C1N2CCCCC2C2c3cccn3-c3ccccc3N21 (stereo not given),T/C,[11],82 % of control
same,T/C,[12],102 % of control
same,T/C,[13],69 % of control
same,T/C,[14],104 % of control
same,T/C,"dose: 400.0 mg/kg/injection, vehicle: Klucel (hydroxypropylcellulose) (HPC)",67 % of control
Nc1nc(F)nc2c1ncn2C1OC(COP(=O)(O)O)C(O)C1O (stereo not given),T/C,[2],184 % of control
same,T/C,[6],87 % of control
same,T/C,[7],116 % of control and 93 % of control
same,T/C,[8],82 % of control and 101 % of control
same,T/C,[9],76 % of control and 83 % of control
CC(=O)OCC1OC(OC2=C(CC=C(C)C)C(=O)c3ccccc3C2=O)C(OC(C)=O)C(OC(C)=O)C1OC(C)=O (stereo not given),T/C,"dose: 12.5 mg/kg/injection, vehicle: Klucel (hydroxypropylcellulose) (HPC)",205 % of control and 81 % of control
same,T/C,[11],181 % of control
same,T/C,[12],113 % of control and 103 % of control
same,T/C,[13],151 % of control
same,T/C,[14],190 % of control
O=C(Nc1cccc(Cl)c1)ON1C(=O)C2C(C1=O)C1(Cl)C(Cl)C(Cl)C2(Cl)C1(Cl)Cl (stereo not given),T/C,[15],95 % of control
same,T/C,[10],89 % of control
same,T/C,[16],58 % of control
CN(C)CCOc1ccc2c(c1)C/C(=C/c1ncc([N+](=O)[O-])n1C)C2=O,T/C,[1],76 % of control
same,T/C,[3],94 % of control
same,T/C,[5],106 % of control
same,T/C,[15],91 % of control
same,T/C,[10],106 % of control
same,T/C,[16],50 % of control
CCCCNC(C)C1(O)Cc2c(O)c3c(c(O)c2C(OC2CC(N)C(O)C(C)O2)C1)C(=O)c1c(OC)cccc1C3=O (stereo not given),T/C,"dose: 40.0 mg/kg/injection, vehicle: saline",95 % of control
same,T/C,"dose: 80.0 mg/kg/injection, vehicle: saline",101 % of control
same,T/C,"dose: 160.0 mg/kg/injection, vehicle: saline",116 % of control
same,T/C,"dose: 320.0 mg/kg/injection, vehicle: saline",47 % of control
